≈ marks a conversion by molar mass, not a printed value.

Common to all, as to format: functional
For one assay, the system named is Salmonella typhi. The assay is described as follows: Antibacterial activity against Salmonella enterica subsp. enterica serovar Typhi MTCC 98 after 24 hr by broth microdilution method. The conditions noted are these: MTCC 98, 24 h.
Another assay has as its system Bacillus subtilis. In words: Antibacterial activity against Bacillus subtilis MTCC 441 after 24 hr by broth microdilution method. The conditions noted are these: MTCC 441, 24 h.
The next assay has as its system Escherichia coli. In words: Antibacterial activity against Escherichia coli MTCC 443 after 24 hr by broth microdilution method. The conditions noted are these: MTCC 443, 24 h. Background: In broth dilution the organism is exposed to a series of concentrations in liquid medium.
The subject of the next assay is Streptococcus pneumoniae. The assay is described as follows: Antibacterial activity against Streptococcus pneumoniae MTCC 1936 after 24 hr by broth microdilution method. The note with it: MTCC 1936, 24 h.
The test system of another assay is Candida albicans. The assay is described as follows: Antifungal activity against Candida albicans MTCC 227 after 48 hr by broth microdilution method. The note with it: MTCC 227, 48 h.
The subject of a further assay is Aspergillus fumigatus. In words: Antifungal activity against Aspergillus fumigatus MTCC 3008 after 48 hr by broth microdilution method. The note with it: MTCC 3008, 48 h.
The test system of another assay is Clostridium tetani. The assay is described as follows: Antibacterial activity against Clostridium tetani MTCC 449 after 24 hr by broth microdilution method. The note with it: MTCC 449, 24 h.
For a further assay, the system named is Vibrio cholerae. In words: Antibacterial activity against Vibrio cholerae MTCC 3906 after 24 hr by broth microdilution method. The note with it: MTCC 3906, 24 h.

For the compound `N#Cc1c(N)nc(Sc2ccc(Cl)cc2)c(C#N)c1-c1cc2ccccc2nc1Sc1ccccc1`, the MIC was determined as 250 µg/mL (≈ 479 µM) in the assay with Salmonella typhi; 250 µg/mL (≈ 479 µM) against Bacillus subtilis; 250 µg/mL (≈ 479 µM) in the assay with Escherichia coli; 500 µg/mL (≈ 958 µM) against Streptococcus pneumoniae; 1000 µg/mL (≈ 1920 µM) in the assay on Candida albicans; 1000 µg/mL (≈ 1920 µM) against Aspergillus fumigatus. The MIC in the assay on Clostridium tetani was determined as 200 µg/mL (≈ 383 µM); against Vibrio cholerae it was 250 µg/mL (≈ 479 µM).

Regarding `O=Cc1cc2ccccc2nc1Sc1ccc(Cl)cc1`, the MIC against Salmonella typhi is 250 µg/mL (≈ 834 µM); against Bacillus subtilis it was 250 µg/mL (≈ 834 µM); against Escherichia coli it was 250 µg/mL (≈ 834 µM); in the assay on Streptococcus pneumoniae it was 100 µg/mL (≈ 334 µM); in the assay with Candida albicans it was 1000 µg/mL (≈ 3340 µM); against Aspergillus fumigatus, above 1000 µg/mL. For the same compound, the MIC in the assay with Clostridium tetani and against Vibrio cholerae was 200 µg/mL (≈ 667 µM) in each case.

One may read the MIC as the smallest concentration in the dilution series that meets the test's criterion for growth inhibition. Higher therefore signals a less susceptible organism.

The record behind these values is ChEMBL document CHEMBL3045635, “Synthesis and in vitro antimicrobial evaluation of novel 2-amino-6-(phenylthio)-4-(2-(phenylthio)quinolin-3-yl)pyridine-3,5-dicarbonitriles” (2013).
